Measurements reported in patent publication US12643859B2, “Pyridyl oxycarboxylic acid oxime derivative and preparation method therefor, weeding composition and application thereof” (Qingdao Kingagroot Chemical Compound Co., Ltd., priority 2018, dated 2026).

Tested on: Monocotyledonous and dicotyledonous weed seeds and main crop seeds
Experiment: Post-emergence test experiment (Table 3, 1000 g a.i./ha)
Format: in vivo
Settings: 3 weeks in greenhouse, fresh weight inhibition
Method: The above described growth inhibition rate is fresh weight inhibition rate.
Post-emergence test experiment: Monocotyledonous and dicotyledonous weed seeds and main crop seeds (i. e. wheat, corn, rice, soybean, cotton, oilseed, millet and sorghum.) were put into a plastic pot loaded with soil. Then covered with 0.5-2 cm soil, the seeds were allowed to grow in good greenhouse environment. The test plants were treated at 2-3 leaf stage 2 weeks after sowing. The test compounds of the invention were dissolved with acetone respectively, then added with tween-80, and using 1.5 liters per hectare of an emulsible concentrate of methyl oleate as a synergist, and diluted by certain amount of water to certain concentration. The solution was sprayed to the plants with a sprayer. Then the plants were cultured for 3 weeks in the greenhouse, and the experiment result of weed controlling effect was listed in tables 3-4.

Compound	Activity level (growth inhibition rate) Digitaria sanguinalis	Activity level (growth inhibition rate) Echinochloa crusgalli	Activity level (growth inhibition rate) Galium spurium	Activity level (growth inhibition rate) Leptochloa chinensis	Activity level (growth inhibition rate) Monochoria Vaginalis	Activity level (growth inhibition rate) Murdannia triquetra	Activity level (growth inhibition rate) Setaria viridis
CC(Oc1nc(F)c(Cl)c(N)c1Cl)C(=O)ON=C(c1ccccc1)c1ccc(C2CC2)cc1 (stereo not drawn) [Compound 80]	5 (Level 5: the growth inhibition rate is greater than 85%)	5 (Level 5: the growth inhibition rate is greater than 85%)	5 (Level 5: the growth inhibition rate is greater than 85%)	5 (Level 5: the growth inhibition rate is greater than 85%)	5 (Level 5: the growth inhibition rate is greater than 85%)	5 (Level 5: the growth inhibition rate is greater than 85%)	5 (Level 5: the growth inhibition rate is greater than 85%)
CC(Oc1nc(F)c(Cl)c(N)c1Cl)C(=O)ON=C(c1ccccc1)c1ccc(C(F)(F)F)cc1 (stereo not drawn) [Compound 81]	5 (Level 5: the growth inhibition rate is greater than 85%)	5 (Level 5: the growth inhibition rate is greater than 85%)	5 (Level 5: the growth inhibition rate is greater than 85%)	5 (Level 5: the growth inhibition rate is greater than 85%)	5 (Level 5: the growth inhibition rate is greater than 85%)	5 (Level 5: the growth inhibition rate is greater than 85%)	5 (Level 5: the growth inhibition rate is greater than 85%)
CC(Oc1nc(F)c(Cl)c(N)c1Cl)C(=O)ON=C(c1ccc(Cl)cc1)c1cccc(F)c1 (stereo not drawn) [Compound 82]	5 (Level 5: the growth inhibition rate is greater than 85%)	5 (Level 5: the growth inhibition rate is greater than 85%)	5 (Level 5: the growth inhibition rate is greater than 85%)	5 (Level 5: the growth inhibition rate is greater than 85%)	5 (Level 5: the growth inhibition rate is greater than 85%)	5 (Level 5: the growth inhibition rate is greater than 85%)	5 (Level 5: the growth inhibition rate is greater than 85%)
CC(Oc1nc(F)c(Cl)c(N)c1Cl)C(=O)ON=C(c1ccccc1)c1ccc(F)cc1 (stereo not drawn) [Compound 83]	5 (Level 5: the growth inhibition rate is greater than 85%)	5 (Level 5: the growth inhibition rate is greater than 85%)	5 (Level 5: the growth inhibition rate is greater than 85%)	5 (Level 5: the growth inhibition rate is greater than 85%)	5 (Level 5: the growth inhibition rate is greater than 85%)	5 (Level 5: the growth inhibition rate is greater than 85%)	5 (Level 5: the growth inhibition rate is greater than 85%)
CCc1cccc(C(Cl)=NOC(=O)C(C)Oc2nc(F)c(Cl)c(N)c2Cl)c1 (stereo not drawn) [Compound 85]	5 (Level 5: the growth inhibition rate is greater than 85%)	5 (Level 5: the growth inhibition rate is greater than 85%)	5 (Level 5: the growth inhibition rate is greater than 85%)	5 (Level 5: the growth inhibition rate is greater than 85%)	5 (Level 5: the growth inhibition rate is greater than 85%)	5 (Level 5: the growth inhibition rate is greater than 85%)	5 (Level 5: the growth inhibition rate is greater than 85%)
CC(Oc1nc(F)c(Cl)c(N)c1Cl)C(=O)ON=C(Br)c1ccc(C#N)cc1 (stereo not drawn) [Compound 86]	5 (Level 5: the growth inhibition rate is greater than 85%)	5 (Level 5: the growth inhibition rate is greater than 85%)	5 (Level 5: the growth inhibition rate is greater than 85%)	5 (Level 5: the growth inhibition rate is greater than 85%)	5 (Level 5: the growth inhibition rate is greater than 85%)	5 (Level 5: the growth inhibition rate is greater than 85%)	5 (Level 5: the growth inhibition rate is greater than 85%)
CSC(=NOC(=O)C(C)Oc1nc(F)c(Cl)c(N)c1Cl)c1ccc(SC)cc1 (stereo not drawn) [Compound 89]	5 (Level 5: the growth inhibition rate is greater than 85%)	5 (Level 5: the growth inhibition rate is greater than 85%)	5 (Level 5: the growth inhibition rate is greater than 85%)	5 (Level 5: the growth inhibition rate is greater than 85%)	5 (Level 5: the growth inhibition rate is greater than 85%)	5 (Level 5: the growth inhibition rate is greater than 85%)	5 (Level 5: the growth inhibition rate is greater than 85%)
CC(=O)C(=NOC(=O)C(C)Oc1nc(F)c(Cl)c(N)c1Cl)c1ccc(NOc2ccccc2)cc1 (stereo not drawn) [Compound 91]	5 (Level 5: the growth inhibition rate is greater than 85%)	5 (Level 5: the growth inhibition rate is greater than 85%)	5 (Level 5: the growth inhibition rate is greater than 85%)	5 (Level 5: the growth inhibition rate is greater than 85%)	5 (Level 5: the growth inhibition rate is greater than 85%)	5 (Level 5: the growth inhibition rate is greater than 85%)	5 (Level 5: the growth inhibition rate is greater than 85%)
CC(Oc1nc(F)c(Cl)c(N)c1Cl)C(=O)ON=C(Cc1ccccc1)c1ccccc1N (stereo not drawn) [Compound 93]	5 (Level 5: the growth inhibition rate is greater than 85%)	5 (Level 5: the growth inhibition rate is greater than 85%)	5 (Level 5: the growth inhibition rate is greater than 85%)	5 (Level 5: the growth inhibition rate is greater than 85%)	5 (Level 5: the growth inhibition rate is greater than 85%)	5 (Level 5: the growth inhibition rate is greater than 85%)	5 (Level 5: the growth inhibition rate is greater than 85%)
CC(Oc1nc(F)c(Cl)c(N)c1Cl)C(=O)ON=C(C(=O)N(C)C)c1ccccc1 (stereo not drawn) [Compound 99]	5 (Level 5: the growth inhibition rate is greater than 85%)	5 (Level 5: the growth inhibition rate is greater than 85%)	5 (Level 5: the growth inhibition rate is greater than 85%)	5 (Level 5: the growth inhibition rate is greater than 85%)	5 (Level 5: the growth inhibition rate is greater than 85%)	5 (Level 5: the growth inhibition rate is greater than 85%)	5 (Level 5: the growth inhibition rate is greater than 85%)
CC(Oc1nc(F)c(Cl)c(N)c1Cl)C(=O)ON=C(C(=O)NCc1ccccc1)c1ccccc1 (stereo not drawn) [Compound 101]	5 (Level 5: the growth inhibition rate is greater than 85%)	5 (Level 5: the growth inhibition rate is greater than 85%)	5 (Level 5: the growth inhibition rate is greater than 85%)	5 (Level 5: the growth inhibition rate is greater than 85%)	5 (Level 5: the growth inhibition rate is greater than 85%)	5 (Level 5: the growth inhibition rate is greater than 85%)	5 (Level 5: the growth inhibition rate is greater than 85%)
CSC(=O)C(=NOC(=O)C(C)Oc1nc(F)c(Cl)c(N)c1Cl)C(=O)NCc1ccc(Cl)cc1 (stereo not drawn) [Compound 102]	5 (Level 5: the growth inhibition rate is greater than 85%)	5 (Level 5: the growth inhibition rate is greater than 85%)	5 (Level 5: the growth inhibition rate is greater than 85%)	5 (Level 5: the growth inhibition rate is greater than 85%)	5 (Level 5: the growth inhibition rate is greater than 85%)	5 (Level 5: the growth inhibition rate is greater than 85%)	5 (Level 5: the growth inhibition rate is greater than 85%)
